What was measured:
[1] = biological target: human Orexin type 1 receptors (Homo sapiens (Human), UniProt O43613); experiment: Scintillation Proximity Assay (SPA) binding assay, [3H]SB-674042 displacement, CHO-hOX1 membranes; conditions: Table 2, [3H]SB-674042 2 nM
[2] = biological target: human Orexin type 2 receptors (Homo sapiens (Human), UniProt O43614); experiment: Scintillation Proximity Assay (SPA) binding assay, [3H]EMPA displacement, HEK-hOX2 membranes; conditions: Table 2, [3H]EMPA 2 nM
human Orexin type 2 receptors, sequence (O43614 whole entry): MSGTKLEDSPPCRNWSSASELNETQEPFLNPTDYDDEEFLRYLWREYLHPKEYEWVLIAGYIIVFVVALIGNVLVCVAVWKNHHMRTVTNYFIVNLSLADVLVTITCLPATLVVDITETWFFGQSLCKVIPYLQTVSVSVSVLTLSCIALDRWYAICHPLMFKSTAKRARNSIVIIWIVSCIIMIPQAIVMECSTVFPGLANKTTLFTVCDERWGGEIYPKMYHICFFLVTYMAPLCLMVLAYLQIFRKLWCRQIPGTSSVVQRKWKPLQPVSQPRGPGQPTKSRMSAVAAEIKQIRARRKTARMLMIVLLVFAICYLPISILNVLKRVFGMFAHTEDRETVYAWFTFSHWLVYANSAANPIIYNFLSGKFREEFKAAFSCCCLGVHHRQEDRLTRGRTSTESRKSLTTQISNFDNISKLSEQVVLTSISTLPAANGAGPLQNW

human Orexin type 1 receptors, sequence (O43613 whole entry): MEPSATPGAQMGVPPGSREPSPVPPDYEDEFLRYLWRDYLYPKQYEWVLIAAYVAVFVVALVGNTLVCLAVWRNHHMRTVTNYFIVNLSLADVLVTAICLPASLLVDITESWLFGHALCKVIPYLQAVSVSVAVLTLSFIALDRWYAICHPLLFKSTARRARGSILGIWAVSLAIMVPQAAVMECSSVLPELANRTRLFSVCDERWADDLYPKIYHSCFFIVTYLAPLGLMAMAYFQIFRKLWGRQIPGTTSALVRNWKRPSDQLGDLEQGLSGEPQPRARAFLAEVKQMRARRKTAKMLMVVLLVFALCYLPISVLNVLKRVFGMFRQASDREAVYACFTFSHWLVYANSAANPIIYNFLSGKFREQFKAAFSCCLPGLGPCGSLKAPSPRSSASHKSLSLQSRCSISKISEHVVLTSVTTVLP

Cc1ccc(-n2nccn2)c(C(=O)N2C3CC(C3)[C@@H](C)C2CNc2cccc(C(F)(F)F)n2)n1 (mixture of isomers) [Example 197, cis-N-({4-methyl-2-[6-methyl-3-(2H-1,2,3-triazol-2-yl)pyridine-2-carbonyl]-2-azabicyclo[3.1.1]heptan-3-yl}methyl)-6-(trifluoromethyl)pyridin-2-amine]
OX1 pKi (SPA binding) [1]: 6.99 | OX2 pKi (SPA binding) [2]: 5.76

Cc1ccc(-n2nccn2)c(C(=O)N2C3CC(C3)[C@@H](C)C2CNc2cnc3cc(F)ccc3n2)n1 (mixture of isomers) [Example 198, cis-6-fluoro-N-({4-methyl-2-[6-methyl-3-(2H-1,2,3-triazol-2-yl)pyridine-2-carbonyl]-2-azabicyclo[3.1.1]heptan-3-yl}methyl)quinoxalin-2-amine]
OX1 pKi (SPA binding) [1]: 8.07 | OX2 pKi (SPA binding) [2]: 6.27

Cc1ccc(-n2nccn2)c(C(=O)N2C3CC(C3)[C@@H](C)C2CNc2cnc3cc(F)c(F)cc3n2)n1 (mixture of isomers) [Example 201, cis-6.7-difluoro-N-({4-methyl-2-[6-methyl-3-(2H-1,2,3-triazol-2-yl)pyridine-2-carbonyl]-2-azabicyclo[3.1.1]heptan-3-yl}methyl)quinoxalin-2-amine]
OX1 pKi (SPA binding) [1]: 7.97 | OX2 pKi (SPA binding) [2]: 6.55

C[C@@H]1C2CC(C2)N(C(=O)c2cc(Cl)ccc2-n2nccn2)C1CNc1cnc(C(F)(F)F)cn1 (mixture of isomers) [Example 203, cis-N-({2-[5-chloro-2-(2H-1,2,3-triazol-2-yl)benzoyl]-4-methyl-2-azabicyclo[3.1.1]heptan-3-yl}methyl)-5-(trifluoromethyl)pyrazin-2-amine]
OX1 pKi (SPA binding) [1]: 8.17 | OX2 pKi (SPA binding) [2]: 5.05

C[C@@H]1C2CC(C2)N(C(=O)c2cc(Cl)ccc2-n2nccn2)C1CNc1cnc2ncccc2n1 (mixture of isomers) [Example 206, cis-N-({2-[5-chloro-2-(2H-1,2,3-triazol-2-yl)benzoyl]-4-methyl-2-azabicyclo[3.1.1]heptan-3-yl}methyl)pyrido[2,3-b]pyrazin-2-amine]
OX1 pKi (SPA binding) [1]: 7.79 | OX2 pKi (SPA binding) [2]: 5.06

C[C@@H]1C2CC(C2)N(C(=O)c2cc(Cl)ccc2-n2nccn2)C1CNc1cnc2cc(F)ccc2n1 (mixture of isomers) [Example 207, cis-N-({2-[5-chloro-2-(2H-1,2,3-triazol-2-yl)benzoyl]-4-methyl-2-azabicyclo[3.1.1]heptan-3-yl}methyl)-6-fluoroquinoxalin-2-amine]
OX1 pKi (SPA binding) [1]: 8.46 | OX2 pKi (SPA binding) [2]: 6.44

C[C@@H]1C2CC(C2)N(C(=O)c2nn(C)cc2-c2ccccc2)C1CNc1ccc(C(F)(F)F)cn1 (mixture of isomers) [Example 210, cis-N-{[4-methyl-2-(1-methyl-4-phenyl-1H-pyrazole-3-carbonyl)-2-azabicyclo[3.1.1]heptan-3-yl]methyl}-5-(trifluoromethyl)pyridin-2-amine]
OX1 pKi (SPA binding) [1]: 8.69 | OX2 pKi (SPA binding) [2]: 5.84

Cc1cnc(NCC2[C@H](C)C3CC(C3)N2C(=O)c2nc(C)ccc2-n2nccn2)cn1 (mixture of isomers) [Example 216, cis-5-methyl-N-({4-methyl-2-[6-methyl-3-(2H-1,2,3-triazol-2-yl)pyridine-2-carbonyl]-2-azabicyclo[3.1.1]heptan-3-yl}methyl)pyrazin-2-amine]
OX1 pKi (SPA binding) [1]: 6.94 | OX2 pKi (SPA binding) [2]: 4.62

Cc1ccc(-n2nccn2)c(C(=O)N2C3CC(C3)[C@@H](C)C2CNc2cncc(C(F)(F)F)n2)n1 (mixture of isomers) [Example 217, cis-N-({4-methyl-2-[6-methyl-3-(2H-1,2,3-triazol-2-yl)pyridine-2-carbonyl]-2-azabicyclo[3.1.1]heptan-3-yl}methyl)-6-(trifluoromethyl)pyrazin-2-amine]
OX1 pKi (SPA binding) [1]: 6.85 | OX2 pKi (SPA binding) [2]: 5.29

Source: US11660293B2, “Substituted 2-azabicyclo[3.1.1]heptane and 2-azabicyclo[3.2.1]octane derivatives as orexin receptor antagonists” (Chronos Therapeutics Limited, priority 2017, dated 2023)
